Test results from PubChem BioAssay AID624344 (Sanford-Burnham Center for Chemical Genomics, 2012).
Active and inactive are the calls of the source. No rule for the calls is given here.

Columns and labels:
Cytotoxicity = assay: NFkB reporter suppression in cystic fibrosis bronchial cells – cell-based, uHTS hits, panel, cytotoxicity readout, dose response (AID 624344); conditions: CF bronchial epithelial cells, mean of runs
[1] = as above; conditions: CF bronchial epithelial cells, PAF-induced NFkB reporter inhibition; with PAF, mean of runs

SMILES | IC50 (Cytotoxicity) | IC50 [1]
COc1ccc(S(=O)(=O)c2c(O)c3ccc(C(=O)Nc4ccccc4Cl)cc3[nH]c2=O)cc1 | 37.8 µM | 7.32 µM
COc1ccc(S(=O)(=O)N(C(C)=O)c2ccc(OC(C)=O)c3ccccc23)cc1[N+](=O)[O-] | 6.46 µM | 3.38 µM
O=C1Nc2ccccc2/C1=C/c1ccnc2ccccc12 | 36.3 µM | 5.85 µM
COc1ccc2[nH]cc(C(=O)CCl)c2c1 | 1.94 µM | 1.21 µM
Cc1cc(C)cc(NS(=O)(=O)c2ccc(-c3cnc(C4CC4)o3)cc2)c1 | 40.9 µM | 12.1 µM
COc1ccc(-c2cc(=O)oc3c(C)c(OC(=O)c4cccs4)ccc23)cc1 | > 79 µM (inactive) | 1.6 µM
Cc1[nH]nc2c1-c1nc3ccccc3nc1C(C)(C)C2 | > 79 µM (inactive) | 10.4 µM
c1ccc2c(-c3ccc4nncn4c3)cncc2c1 | > 79 µM (inactive) | 1.42 µM
Cc1csc(CNc2ncnc3ccc(-c4ccoc4)cc23)c1 | 13.8 µM | < 0.3 µM
CCCCCc1cc(O)c2c(C)cc(=O)oc2c1 | 7.62 µM | 4.83 µM
CCOC(=O)c1sc(NC(=O)c2cccc(S(=O)(=O)N3CCc4ccccc43)c2)c(C#N)c1C | 6.88 µM | 1.02 µM
Cc1ccsc1CN(C)c1ncnc2ccc(-c3ccoc3)cc12 | 47 µM | 0.376 µM
c1ccc2c(c1)Nc1ccncc1S2 | 44.1 µM | 1.46 µM
C=CCc1cc(S(=O)(=O)c2ccc(O)c(CC=C)c2)ccc1O | 56.8 µM (inactive) | 6.34 µM
COc1cccc2c(SCC(=O)N/N=C/c3ccccc3)cc(C)nc12 | 38.6 µM | 6.95 µM
NC(=O)c1sc2nc3c(c(-c4ccco4)c2c1N)CCCC3 | 44.5 µM | 2.73 µM
COc1ccc(N(CCCN2C(=O)c3cccc4cccc(c34)C2=O)C(=O)c2ccncc2)cc1 | 12.9 µM | inactive
CC(=O)c1ccc(-c2cnc3c(NC=O)cc(-c4ccc(C(=O)NC5CC5)cc4)cn23)cc1 | 27.4 µM | 4.25 µM
N#Cc1cccc(NC(=O)COC(=O)c2ccccc2C(=O)c2ccc(Cl)c([N+](=O)[O-])c2)c1 | 9.79 µM | 2.66 µM
C=C(C)[C@@H]1CC[C@]2(C(=O)O)CC[C@]3(C)[C@H](CC[C@@H]4[C@@]5(C)CC[C@H](O)C(C)(C)[C@@H]5CC[C@]43C)[C@@H]12 | 42.2 µM | inactive
CCCc1nnc(NC(=O)c2nc(S(=O)(=O)Cc3ccc(C)cc3)ncc2Cl)s1 | 3.08 µM | 1.23 µM

SMILES | IC50 (Cytotoxicity) | IC50 [1]
COc1cc(NC(=O)Cn2ncc(Cl)c(Cl)c2=O)c(C)cc1[N+](=O)[O-] | 3.15 µM | 3.31 µM
CNc1ccc2ncc(-c3cccc(C(=O)N(C)C)c3)n2n1 | 53.7 µM (inactive) | 0.169 µM
COC1(OC)C=CC(=O)C=C1NC(=O)c1ccccc1OC(C)=O | 15.2 µM | 4.11 µM
CCOc1ccccc1NC(=O)c1nc(S(=O)(=O)Cc2ccccc2)ncc1Cl | 2.27 µM | 1.83 µM
COc1ccc2ncn(-c3ccccc3)c2c1 | 60.6 µM (inactive) | 5.47 µM
Fc1ccc(Nc2ccnc(Nc3ccc(F)cc3)n2)cc1 | 14 µM | 7.91 µM
O=C(NCc1ccccc1)C1=C[C@H](c2csc3ccccc23)C[C@H](OCc2ccc(CO)cc2)O1 | 12.8 µM | inactive
C=C1C(=O)OC2CC3(C)OC3CCC(C)=CC(OC(C)=O)C12 (stereo not drawn) | 2.35 µM | 2.27 µM
N#CC1c2ccccc2-n2nncc2CN1Cc1cc(Cl)cc(Cl)c1 (stereo not drawn) | 1.6 µM | 2.16 µM
CS(=O)(=O)Nc1cccc(-c2cc(NC=O)c3ncc(-c4ccc(F)cc4)n3c2)c1 | 8.66 µM | 2.4 µM
Cc1cccc(NC(=O)c2nc(S(=O)(=O)Cc3ccccc3)ncc2Cl)c1 | 3.39 µM | 2.51 µM
Cc1ccc(CCC(=O)Nc2ncc(Cc3cccc(Cl)c3Cl)s2)o1 | 19.1 µM | 8.87 µM
Brc1ccc2ncnc(NCc3ccco3)c2c1 | 72.7 µM (inactive) | 5.67 µM
O=C(CC12CC3CC(CC(C3)C1)C2)Nc1nncs1 | 54.5 µM (inactive) | inactive
COc1ccc(-c2oc3ccc(-c4ccc(OC)nc4)cc3c2C#CC2(O)CCCCC2)cc1 | 14.4 µM | 6.05 µM
O=C1N(c2ccccc2C(F)(F)F)O[C@@]1(c1ccccc1)C1CCCCC1 | > 79 µM (inactive) | 8.4 µM
Cc1c(C(=O)c2cccc3ccccc23)c2cccc3c2n1[C@H](CN1CCOCC1)CO3 | 16.3 µM | 7.9 µM
COc1cccc(/C=N/n2c(C3CCCCC3)n[nH]c2=S)c1 | 33.7 µM | 3.97 µM
O=C(Nc1ccc(OCC(=O)N2CCOCC2)cc1)c1cncc(Br)c1 | > 79 µM (inactive) | 6.67 µM
COc1cccc(-c2ccc3ncnc(NCc4cc(C)cs4)c3c2)c1 | 26.9 µM | 3.86 µM
Nc1nc(N)nc(-c2cc([N+](=O)[O-])ccc2O)n1 | > 79 µM (inactive) | 8.82 µM

SMILES | IC50 (Cytotoxicity) | IC50 [1]
CC(=O)c1cccc(NC(=O)COC(=O)c2ccc(S(C)(=O)=O)c([N+](=O)[O-])c2)c1 | 12.6 µM | 5.26 µM
CCN(CC)S(=O)(=O)c1ccc(NC(=O)Nc2cccc(C(F)(F)F)c2)cc1 | 12.2 µM | 6.03 µM
Brc1cccc(CSc2nnc(-c3ccncc3)o2)c1 | > 79 µM (inactive) | 6.88 µM
Clc1cccc(Nc2ncnc3ccc(Br)cc23)c1 | 15.1 µM | 3.53 µM
Cc1ccc(NC(=O)CSc2ncnc3ccccc23)cc1S(=O)(=O)N1CCOCC1 | 34.6 µM | 4.14 µM
C=C1C(=O)O[C@@H]2[C@H]1CC[C@H](C)[C@]1(O)CCC(=O)[C@@]21C | 40 µM | 2.37 µM
Cc1ccc2occ(/C=N/NC(=O)c3ccccc3Br)c(=O)c2c1 | 40.4 µM | 4.98 µM
COc1cc(C2c3cc4c(c(O)c3CC3COC(=O)C32)OCO4)cc(OC)c1OC (stereo not drawn) | > 79 µM (inactive) | inactive
CCN1CCN(Cc2ccc(NC(=O)c3ccc(C)c(NC(=O)c4ccc5n[nH]nc5c4)c3)cc2C(F)(F)F)CC1 | 33.3 µM | 2.58 µM
COc1ccc(C2=Nn3c(nnc3-c3ccccc3OC)SC2)cc1OC1CCOC1 (stereo not drawn) | > 79 µM (inactive) | 4.85 µM
Nc1nc(N)nc(-c2cc(O)ccc2O)n1 | 21.2 µM | 3.31 µM
Brc1ccc2ncnc(NCc3ccccc3)c2c1 | 6.15 µM | 0.506 µM
Cc1ccc(NC(=O)c2nc[nH]c2C(=O)NCCCNC(=O)c2[nH]cnc2C(=O)Nc2ccc(C)cc2)cc1 | 14 µM | 3.82 µM
O=C1OC(c2ccccc2)(c2cc(Br)ccc2O)c2ccccc21 (stereo not drawn) | 42.4 µM | 6.65 µM
COc1ccc(/C=N/Nc2nc(-c3cccnc3)nc3ccccc23)cc1OC | 8.04 µM | 3 µM
C=C1C(=O)C23C(O)C1CCC2C12COC3(O)C(O)C1C(C)(C)CCC2O (stereo not drawn) | 5.5 µM | 3.69 µM
O=C1OC(Nc2nc(-c3ccc(F)cc3)cs2)c2ccccc21 (stereo not drawn) | 10.7 µM | 2.31 µM
COCCNc1nc(Oc2cncc(Cl)c2)c2sccc2n1 | 29.1 µM | 2.9 µM
CC(=O)OCCCNc1cc(Sc2ccc(Cl)cc2)c2nonc2c1[N+](=O)[O-] | 11.1 µM | 13 µM
O=c1cc(-c2ccccc2Cl)oc2c([N+](=O)[O-])c(O)cc(O)c12 | 5.36 µM | 0.235 µM
COc1ccc(CNc2ncnc3ccccc23)cc1 | 59.5 µM (inactive) | 15.3 µM

SMILES | IC50 (Cytotoxicity) | IC50 [1]
C=C1C(=O)O[C@@]23[C@H]1CC[C@@H](C)[C@@H]2CC[C@@]1(C)O[C@@H]31 | 44.9 µM | 3.76 µM
Cc1ccc(CCC(=O)Nc2ncc(Cc3cc(Cl)ccc3Cl)s2)o1 | 13.2 µM | 19.2 µM
O=c1[nH]nc(Sc2ncnc3sccc23)n1CCc1ccccc1 | 19 µM | 3.07 µM
COC(=O)c1c(C)n(-c2ccc(OC)cc2)c2ccc(O)cc12 | 42.2 µM | 2.37 µM
CCN(c1ccc(OC)cc1)c1ncnc2nc[nH]c12 | > 79 µM (inactive) | 3.62 µM
COc1ccc(-c2[nH]ncc2-c2ccc3c(c2)OCCO3)c(O)c1 | 65.4 µM (inactive) | 0.186 µM
CN(c1ncnc(N)c1[N+](=O)[O-])C1CCCCC1 | > 79 µM (inactive) | 1.09 µM
Cc1ccc(NS(=O)(=O)c2ccc(-c3cnc(C4CC4)o3)cc2)c(C)c1 | 32.5 µM | 14.2 µM
CC1C(c2ccccc2)OCCN1C(=S)Nc1ccc(S(=O)(=O)N2CCCCC2)cc1 (stereo not drawn) | 56.5 µM (inactive) | 9.52 µM
C=C1C(C)C2C(Cc3ccccc3)NC(=O)C23OC(=O)/C=C/C(O)CCCC(C)C/C=C/C3C1O (stereo not drawn) | 2.32 µM | 1.25 µM
NS(=O)(=O)c1ccc(CCNC(=O)c2ccc(C#CC3(O)CCCCC3)cc2)cc1 | 5.01 µM | 3.47 µM
CCS(=O)(=O)c1ncc(Cl)c(C(=O)Nc2ccccc2OC)n1 | 7.42 µM | 1.82 µM
C=C1C(=O)O[C@@H]2[C@H]3O[C@]3(C)CC/C=C(\C)CC[C@@H]12 | 18.1 µM | 3.59 µM
COc1ccccc1Cn1c(=O)c2ccccc2n2c(Sc3ncnc4sccc34)nnc12 | 5.9 µM | 3.9 µM
Cc1ccccc1C(=O)N1CCN(c2ccc(NC(=O)CSc3ccc(Cl)cc3)cc2)CC1 | > 79 µM (inactive) | 0.879 µM
Cc1c(C(=O)OCC(C)C)[nH]c2c1C(=O)CC(c1ccco1)C2 (stereo not drawn) | 38.3 µM | inactive
O=C(NCCN1CCN(c2ccccc2)CC1)c1cccc(Br)c1 | 57.4 µM (inactive) | 18.9 µM
CCc1cc2c(Sc3nc4ccccc4s3)ncnc2s1 | 1.74 µM | 1.03 µM
Cc1cccc(C(=O)N2[C@@H](C(C)C)COc3cc(Br)ccc3S2(=O)=O)c1 | 37.8 µM | 11.1 µM
CC(C)Cc1nc2oc3c(NCC4CCCO4)ncnc3c2c2c1CCC2 (stereo not drawn) | 3.76 µM | 2.87 µM
O=C(NC1CCCC(C(F)(F)F)C1)c1ccc([N+](=O)[O-])o1 (stereo not drawn) | 11 µM | 3.87 µM
